Test results from US20120288456A1, “NOVEL COMPOUND” (priority 2009, published 2012).

What was measured:
[1] = Comparative solubility of BMDBM in 1:1 mixture of C12-15 alkyl benzoate and a polymeric or solid UV-filter
Text: Where necessary the mixture was centrifuged in order to obtain a clear supernatant.

[2] = Solubility of BMDBM and BEMT in cosmetic solvent with and without PG-UVB (saturation, HPLC of supernatant; storage test); conditions: 200 mg BEMT in 800 mg diethylhexyl adipate/PG-UVB1 1:1, 1 month at RT

CCCCC(CC)COc1ccc(-c2nc(-c3ccc(OC)cc3)nc(-c3ccc(OCC(CC)CCCC)cc3O)n2)c(O)c1 (stereo not shown) [BEMT, bis-ethylhexyloxyphenol methoxyphenyl triazine]
Δ solubility of BMDBM related to cosmetic solvent ([1]; C12-15 alkyl benzoate/UV-filter 1:1, label = UV-filter): −4 wt.-% | Δ solubility of BMDBM ([1]; C12-15 alkyl benzoate/UV-filter 1:1 versus C12-15 alkyl benzoate, label = UV-filter): −11 wt.-% | Solubility of BMDBM in C12-15 alkyl benzoate/UV-filter 1:1 ([1]; label = UV-filter in 1:1 mixture, 200 mg BMDBM in 1000 mg mixture, 1 month at RT, HPLC of supernatant): 3 wt.-% | re-crystallization on storage [2]: no re-crystallization occurred
